In the oligonucleotide strings, read from the 5' end, every base follows the letter of its sugar. An asterisk marks phosphorothioate; unmarked linkages are phosphodiester. Other units and linkages are bracketed, terminal groups are in braces. A string of capitals states the bases alone. e = 2'-O-(2-methoxyethyl) (MOE); [5mC] = 5-methylcytosine
How the values were obtained:
IL-6 mRNA = IL-6 mRNA in LPS-activated primary murine macrophages; type: cell-based, mouse; settings: average of 3 treatments
How it was run: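 Thioglycollate-elicited peritoneal macrophages from female C57Bl/6 mice, transfected with miRNA-targeting oligomeric compounds via FuGENE 6 (1 μL per 100 nM compound) for ~24–28 h at 37 °C, optionally primed 4 h with 100 ng/mL IFN-gamma, then stimulated 24 h with 100 ng/mL LPS. IL-6 mRNA quantified by real-time PCR.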

mir-143 miRNA = assay: Northern blot of mature mir-143 in kidney of ob/ob mice; type: in vivo, mouse; settings: twice weekly at 25 mg/kg, saline = 100%
Description: In addition, Northern blot analyses were performed to quantitate the expression of mature mir-143 in kidney samples of ob/ob mice treated with oligomeric compounds of the present invention. The mir-143 specific DNA oligonucleotide probe (SEQ ID NO: 319) described above was used to detect expression levels of the mir-143 miRNA in ob/ob mice treated (twice weekly at 25 mg/kg) with ISIS Numbers 327901, the uniform 2′-MOE oligomeric compound, or ISIS Number 340927, the 5-10-7 gapmer compound, both targeted to mir-143, versus saline treated animals or animals treated with ISIS 342672 (SEQ ID NO: 789), a uniform 2′-MOE scrambled negative control oligomeric compound. Expression levels were normalized against the U6 RNA and the expression levels of saline treated animals were set at 100%. […] In kidney samples from mice treated with the gapmer oligomeric compound targeting mir-143, ISIS Number 340927, a 23% reduction in in vivo expression levels of the mature mir-143 miRNA was observed.

| Substance | IL-6 mRNA expression, % UTC (IL-6 mRNA; 75 nM, +IFN) | IL-6 mRNA expression, % UTC (IL-6 mRNA; 75 nM, −IFN) | IL-6 mRNA expression, % UTC (IL-6 mRNA; 150 nM, +IFN) | IL-6 mRNA expression, % UTC (IL-6 mRNA; 150 nM, −IFN) | IL-6 mRNA expression, % UTC (IL-6 mRNA; 300 nM, +IFN) | IL-6 mRNA expression, % UTC (IL-6 mRNA; 300 nM, −IFN) | IL-6 mRNA expression, % UTC (IL-6 mRNA; 600 nM, +IFN) | IL-6 mRNA expression, % UTC (IL-6 mRNA; 600 nM, −IFN) | decrease in in vivo expression levels of the mature mir-143 miRNA (mir-143 miRNA) |
| --- | --- | --- | --- | --- | --- | --- | --- | --- | --- |
| 327921 (antisense e[5mC]*eT*eT*e[5mC]*e[5mC]*eA*eG*eT*e[5mC]*eG*eG*eG*eG*eA*eT*eG*eT*eT*eT*eA*e[5mC]*eA) [compound 327921] | 122 % UTC | 223 % UTC | 144 % UTC | 294 % UTC | 287 % UTC | 522 % UTC | 313 % UTC | 632 % UTC |  |
| 327941 (antisense eA*eA*e[5mC]*e[5mC]*e[5mC]*eA*e[5mC]*e[5mC]*eG*eA*e[5mC]*eA*eG*e[5mC]*eA*eA*eT*eG*eA*eA*eT*eG*eT*eT) [compound 327941] | 181 % UTC | 293 % UTC | 197 % UTC | 325 % UTC | 197 % UTC | 271 % UTC | 301 % UTC | 501 % UTC |  |
| TGAGCTACAGTGCTTCATCTCA [ISIS 327901] (chemistry not given here) [uniform 2′-MOE PS; targets mir-143] |  |  |  |  |  |  |  |  | ~40% |
| TGAGCTACAGTGCTTCATCTCA [ISIS 340927] (chemistry not given here) [5-10-7 2′-MOE gapmer PS; targets mature mir-143] |  |  |  |  |  |  |  |  | 23% |

Source: patent US8178506B2, “Oligomeric compounds and compositions for use in modulation of small non-coding RNAs” (Regulus Therapeutics Inc., priority 2003, dated 2012)
